Results on 1 compound are retold here after patent US20210092956A1, “Safening Rice Against Group 15 Herbicides” (THE BOARD OF TRUSTEES OF THE UNIVERSITY OF ARKANSAS, priority 2019, published 2021).

For one data set, the system named is Diamond rice. More on the design: species or system Oryza sativa L. As to conditions: in vivo. The method, then: The experiment was conducted within a growth chamber at 13.8° C. (night) and 23.8° C. (day) using a 10-hour night and 14-hour day photoperiod. Diamond rice was planted in pots filled to the same weight of soil to maintain 80% soil moisture throughout the experiment. […] Data were analyzed using R and subjected to ANOVA. Means were separated using Fisher's LSD (α=0.05).

The test system of another data set is barnyardgrass. The data set can be described thus: Field weed control with ME acetochlor, barnyardgrass. The format is in vivo, Echinochloa crus-galli. As to conditions: fenclorim seed treatment with ME acetochlor. The method, then: (§1) The experiment was conducted under standard small-plot research practices. Diamond rice was planted at 72 seeds m^−1 row. […] Data were analyzed using R and subjected ANOVA. Means were separated using Fisher's LSD (α=0.05).

Another data set relates to weedy rice or red rice. As to the kind of experiment: Field weed control with ME acetochlor, weedy rice. The settings on record: fenclorim seed treatment with ME acetochlor. The format is in vivo, Oryza sativa L. var. sylvatica. The method, then: as §1

In the data set on Diamond rice, `Clc1cc(Cl)nc(-c2ccccc2)n1` [fenclorim, 4,6-dichloro-2-phenyl-pyrimidine] showed a Biomass of 99%, a Height of 13.7 cm, an Injury of 0% and a Stand reduction of 3%. Further, in the data set on barnyardgrass, the “effect of the seed treatment on weed control” value is “did not negatively affect weed control”. The “effect of the seed treatment on weed control” value in the data set with weedy rice or red rice is listed as “did not negatively affect weed control”.
